Experimental data reported in ChEMBL document CHEMBL1201862, “PubChem BioAssay data set” (2004).
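1) Cells in 96-well plates. 2) Compound, 48 h, 5 concentrations. 3) Linear interpolation between surrounding doses. 4) Unreached endpoint = highest concentration. GI50 is the concentration that inhibits growth by half.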 Activity calls are given as the source filed them. No stated cut-off is given here; in the data, active = GI50 up to about 1.1 µM and inactive = higher.

What was measured:
Test in all cases: NCI-60 cell line screen, 48 h
[1] = tested on: M14
[2] = tested on: PC-3
[3] = tested on: SF-539
[4] = tested on: NCI-H23
[5] = tested on: SF-295
[6] = tested on: SN12C
[7] = tested on: T47D
[8] = tested on: COLO 205
[9] = tested on: MDA-MB-231
[10] = tested on: HOP-62
[11] = tested on: ACHN
[12] = tested on: LOX IMVI
[13] = tested on: MOLT-4
[14] = tested on: EKVX
[15] = tested on: UO-31
[16] = tested on: OVCAR-8
[17] = tested on: IGROV-1
[18] = tested on: CCRF-CEM
[19] = tested on: SNB-75
[20] = tested on: HCC 2998
[21] = tested on: NCI-H226
[22] = tested on: HCT-116
[23] = tested on: SW-620
[24] = tested on: 786-0
[25] = tested on: MDA-MB-435
[26] = tested on: U-251
[27] = tested on: NCI-H522
[28] = tested on: Malme-3M
[29] = tested on: CAKI-1
[30] = tested on: MCF7
[31] = tested on: RPMI-8226
[32] = tested on: Hs-578T
[33] = tested on: A549
[34] = tested on: HT-29
[35] = tested on: OVCAR-3
[36] = tested on: RXF 393
[37] = tested on: SK-OV-3
[38] = tested on: KM12
[39] = tested on: UACC-62
[40] = tested on: OVCAR-4
[41] = tested on: SF-268
[42] = tested on: SR
[43] = tested on: DU-145
[44] = tested on: SNB-19
[45] = tested on: HOP-92
[46] = tested on: K562
[47] = tested on: SK-MEL-2
[48] = tested on: TK-10
[49] = tested on: UACC-257
[50] = tested on: HCT-15
[51] = tested on: OVCAR-5
[52] = tested on: BT-549
[53] = tested on: SK-MEL-28
[54] = tested on: SK-MEL-5
[55] = tested on: MDA-N
[56] = tested on: NCI-H460
[57] = tested on: A498
[58] = tested on: NCI/ADR-RES
[59] = tested on: HL-60

CC(C)(C)c1cc(C(=O)Nc2cc(Br)c(Br)cc2S(N)(=O)=O)cc(C(C)(C)C)c1O
GI50 [1]: 15.2 µM (inactive)
GI50 [2]: 10.7 µM (inactive)
GI50 [3]: 15.8 µM (inactive)
GI50 [4]: 20 µM (inactive)
GI50 [5]: 14.2 µM (inactive)
GI50 [6]: 7.24 µM (inactive)
GI50 [7]: 3.24 µM (inactive)
GI50 [8]: 5.08 µM (inactive)
GI50 [9]: 9.51 µM (inactive)
GI50 [10]: 20.9 µM (inactive)
GI50 [11]: 11.3 µM (inactive)
GI50 [12]: 6.46 µM (inactive)
GI50 [13]: 4.39 µM (inactive)
GI50 [14]: 12.8 µM (inactive)
GI50 [15]: 10.5 µM (inactive)
GI50 [16]: 13.3 µM (inactive)
GI50 [17]: 12.6 µM (inactive)
GI50 [18]: 4.28 µM (inactive)
GI50 [19]: 9.31 µM (inactive)
GI50 [20]: 5.07 µM (inactive)
GI50 [21]: 13.1 µM (inactive)
GI50 [22]: 8.24 µM (inactive)
GI50 [23]: 9.42 µM (inactive)
GI50 [24]: 11 µM (inactive)
GI50 [25]: 12.3 µM (inactive)
GI50 [26]: 12.5 µM (inactive)
GI50 [27]: 11.8 µM (inactive)
GI50 [28]: 13.5 µM (inactive)
GI50 [29]: 9.93 µM (inactive)
GI50 [30]: 5.37 µM (inactive)
GI50 [31]: 8.32 µM (inactive)
GI50 [32]: 11.9 µM (inactive)
GI50 [33]: 9.12 µM (inactive)
GI50 [34]: 5.01 µM (inactive)
GI50 [35]: 7.91 µM (inactive)
GI50 [36]: 11.1 µM (inactive)
GI50 [37]: 16.4 µM (inactive)
GI50 [38]: 5.77 µM (inactive)
GI50 [39]: 6.08 µM (inactive)
GI50 [40]: 12.1 µM (inactive)
GI50 [41]: 13.3 µM (inactive)
GI50 [42]: 6 µM (inactive)
GI50 [43]: 15.3 µM (inactive)
GI50 [44]: 13.3 µM (inactive)
GI50 [45]: 6.52 µM (inactive)
GI50 [46]: 5.71 µM (inactive)
GI50 [47]: 10 µM (inactive)
GI50 [48]: 12.9 µM (inactive)
GI50 [49]: 17.9 µM (inactive)
GI50 [50]: 3.85 µM
GI50 [51]: 12.4 µM (inactive)
GI50 [52]: 12.2 µM (inactive)
GI50 [53]: 13.4 µM (inactive)
GI50 [54]: 12.4 µM (inactive)

N/C(=N\c1ccccc1Cl)c1ccccc1N
GI50 [1]: > 100 µM (inactive)
GI50 [2]: > 100 µM (inactive)
GI50 [55]: > 100 µM (inactive)
GI50 [4]: > 100 µM (inactive)
GI50 [56]: > 100 µM (inactive)
GI50 [5]: > 100 µM (inactive)
GI50 [8]: > 100 µM (inactive)
GI50 [9]: > 100 µM (inactive)
GI50 [10]: > 100 µM (inactive)
GI50 [11]: > 100 µM (inactive)
GI50 [12]: > 100 µM (inactive)
GI50 [13]: > 100 µM (inactive)
GI50 [14]: > 100 µM (inactive)
GI50 [15]: > 100 µM (inactive)
GI50 [16]: > 100 µM (inactive)
GI50 [17]: 45.8 µM (inactive)
GI50 [18]: > 100 µM (inactive)
GI50 [19]: 95.5 µM (inactive)
GI50 [20]: > 100 µM (inactive)
GI50 [21]: > 100 µM (inactive)
GI50 [22]: > 100 µM (inactive)
GI50 [23]: > 100 µM (inactive)
GI50 [24]: > 100 µM (inactive)
GI50 [25]: > 100 µM (inactive)
GI50 [57]: > 100 µM (inactive)
GI50 [26]: > 100 µM (inactive)
GI50 [27]: > 100 µM (inactive)
GI50 [28]: > 100 µM (inactive)
GI50 [58]: > 100 µM (inactive)
GI50 [29]: > 100 µM (inactive)
GI50 [30]: > 100 µM (inactive)
GI50 [31]: > 100 µM (inactive)
GI50 [32]: > 100 µM (inactive)
GI50 [33]: > 100 µM (inactive)
GI50 [59]: > 100 µM (inactive)
GI50 [34]: > 100 µM (inactive)
GI50 [35]: > 100 µM (inactive)
GI50 [36]: > 100 µM (inactive)
GI50 [37]: > 100 µM (inactive)
GI50 [38]: > 100 µM (inactive)
GI50 [39]: > 100 µM (inactive)
GI50 [40]: > 100 µM (inactive)
GI50 [41]: > 100 µM (inactive)
GI50 [42]: > 100 µM (inactive)
GI50 [43]: > 100 µM (inactive)
GI50 [44]: > 100 µM (inactive)
GI50 [45]: 16 µM (inactive)
GI50 [46]: > 100 µM (inactive)
GI50 [47]: > 100 µM (inactive)
GI50 [48]: > 100 µM (inactive)
GI50 [49]: > 100 µM (inactive)
GI50 [50]: > 100 µM
GI50 [51]: > 100 µM (inactive)
GI50 [52]: > 100 µM (inactive)
GI50 [53]: > 100 µM (inactive)
GI50 [54]: > 100 µM (inactive)
